# According to patent publication US20250145598A1, “ACID CERAMIDASE INHIBITORS AND USES THEREOF” (The Regents of the University of California, priority 2021, published 2025):
# Biological target: T1, Acid ceramidase (Homo sapiens, UniProt Q13510)
# T1 sequence (Q13510 22-395): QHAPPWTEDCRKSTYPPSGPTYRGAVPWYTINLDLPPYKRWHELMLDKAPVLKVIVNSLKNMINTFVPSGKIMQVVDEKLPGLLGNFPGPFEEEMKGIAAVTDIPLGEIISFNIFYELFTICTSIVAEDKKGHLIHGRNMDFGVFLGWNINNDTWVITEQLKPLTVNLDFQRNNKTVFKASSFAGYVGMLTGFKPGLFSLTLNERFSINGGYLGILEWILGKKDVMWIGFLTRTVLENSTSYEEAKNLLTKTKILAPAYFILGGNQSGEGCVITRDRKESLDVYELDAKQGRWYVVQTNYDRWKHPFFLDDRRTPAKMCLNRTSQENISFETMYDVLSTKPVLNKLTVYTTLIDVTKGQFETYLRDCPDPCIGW
# Test: Acid ceramidase assay (AC in vitro IC50)
# Type: biochemical
# Conditions: Acid ceramidase assay data of example compounds
row,Compound,IC50 [nM]
1,"CS(=O)(=O)c1ccc(CNC(=O)n2cnc(-c3ccc(OCc4ccc(S(C)(=O)=O)cc4)cc3)c2)cc1 [AC2020601-0303, N-(4-(methylsulfonyl)benzyl)-4-(4-((4-(methylsulfonyl)benzyl)oxy)phenyl)-1H-imidazole-1-carboxamide]",301 to 3000
2,"CS(=O)(=O)c1ccc(COc2ccc(-c3cn(C(=O)NCC4CCN(c5cccc(C#N)c5)C4)cn3)cc2)cc1 (centres unmarked) [AC2020601-0494, N-((1-(3-cyanophenyl)pyrrolidin-3-yl)methyl)-4-(4-(4-(methylsulfonyl)benzyloxy)phenyl)-1H-imidazole-1-carboxamide]",< 300
3,"CC(C)N1CC(CNC(=O)n2cnc(-c3ccc(OCc4ccc(S(C)(=O)=O)cc4)cc3)c2)C1 [AC2020601-0379, N -((1-isopropylazetidin-3-yl)methyl)-4-(4-((4-(methylsulfonyl)benzyl)oxy)phenyl)-1H-imidazole-1-carboxamide]",> 3000
4,"CCCCCCNC(=O)n1cnc(-c2ccccc2OCc2ccccc2)c1 [AC2020601-0199, 4-(2-(benzyloxy)phenyl)-N-hexyl-1H-imidazole-1-carboxamide]",< 300
5,"O=C(NCCCOc1ccccc1)n1cnc(-c2ccc(OCc3ccc(S(=O)(=O)N4CCOCC4)cc3)cc2)c1 [AC2020601-0347, 4-(4-((4-(morpholinosulfonyl)benzyl)oxy)phenyl)-N-(3-phenoxypropyl)-1H-imidazole-1-carboxamide]",< 300
6,"Cc1ncc(N2CCC(CNC(=O)n3cnc(-c4ccc(OCc5ccc(S(C)(=O)=O)cc5)cc4)c3)C2)s1 (centres unmarked) [AC2020601-0499, 4-(4-((4-(methylsulfonyl)benzyl)oxy)phenyl)-N-((1-(2-methylthiazol-5-yl)pyrrolidin-3-yl)methyl)-1H-imidazole-1-carboxamide]",< 300
7,"CS(=O)(=O)c1ccc(C(CO)Oc2ccc(-c3cn(C(=O)NCC4CCN(c5ccccc5)C4)cn3)cc2)cc1 (centres unmarked) [AC2020601-0428, 4-(4-(2-hydroxy-1-(4-(methylsulfonyl)phenyl)ethoxy)phenyl)-N-((1-phenylpyrrolidin-3-yl)methyl)-1H-imidazole-1-carboxamide]",< 300
8,"CS(=O)(=O)c1ccc(C(=O)Oc2ccc(-c3cn(C(=O)NCC4CCN(c5ccccc5)C4)cn3)cc2)cc1 (centres unmarked) [AC2020601-0501, 4-(1-((1-phenylpyrrolidin-3-yl)methylcarbamoyl)-1H-imidazol-4-yl)phenyl 4-(methylsulfonyl)benzoate]",< 300
9,"CN1CCN(S(=O)(=O)c2ccc(COc3ccc(-c4cn(C(=O)NCCCOc5ccccc5)cn4)cc3)cc2)CC1 [AC2020601-0342, 4-(4-((4-((4-methylpiperazin-1-yl)sulfonyl)benzyl)oxy)phenyl)-N-(3-phenoxypropyl)-1H-imidazole-1-carboxamide]",< 300
10,"O=C(NCC1CCN(c2ccccc2)C1)n1cnc(-c2ccc(OC3CCc4cc(F)ccc43)cc2)c1 (centres unmarked) [AC2020601-0439, 4-(4-((5-fluoro-2,3-dihydro-1H-inden-1-yl)oxy)phenyl)-N-((1-phenylpyrrolidin-3-yl)methyl)-1H-imidazole-1-carboxamide]",< 300
11,"O=C(NCC1CN(c2ccccc2)C1)n1cnc(-c2ccc(OCc3cccc(N4CCOCC4)c3)cc2)c1 [AC2020601-0382, 4-(4-(3-morpholinobenzyloxy)phenyl)-N-((1-phenylazetidin-3-yl)methyl)-1H-imidazole-1-carboxamide]",< 300
12,"CS(=O)(=O)c1ccc(COc2ccc(-c3cn(C(=O)NCC4CC4)cn3)cc2)cc1 [AC2020601-0295, N-(cyclopropylmethyl)-4-(4-((4-(methylsulfonyl)benzyl)oxy)phenyl)-1H-imidazole-1-carboxamide]",< 300
13,"NS(=O)(=O)c1ccc(COc2ccc(-c3cn(C(=O)NCCCCc4ccccc4)cn3)cc2)cc1 [AC2020601-0284, N-(4-phenylbutyl)-4-(4-((4-sulfamoylbenzyl)oxy)phenyl)-1H-imidazole-1-carboxamide]",< 300
14,"O=C(Nc1ccc(COc2ccc(-c3cn(C(=O)NCCCOc4ccccc4)cn3)cc2)cc1)C1CC1 [AC2020601-0328, 4-(4-((4-(cyclopropanecarboxamido)benzyl)oxy)phenyl)-N-(3-phenoxypropyl)-1H-imidazole-1-carboxamide]",< 300
15,"CS(=O)(=O)c1ccc(COc2ccc(-c3cn(C(=O)NCCCCc4ccccc4)cn3)cc2)cc1 [AC2020601-0243, 4-(4-((4-(methylsulfonyl)benzyl)oxy)phenyl)-N-(4-phenylbutyl)-1H-imidazole-1-carboxamide]",< 300
16,"O=C(NCCCOc1ccccc1)n1cnc(-c2ccc(OCc3ccc(NS(=O)(=O)C(F)F)cc3)cc2)c1 [AC2020601-0363, 4-(4-((4-(difluoromethylsulfonamido)benzyl)oxy)phenyl)-N-(3-phenoxypropyl)-1H-imidazole-1-carboxamide]",< 300
17,"CS(=O)(=O)c1ccc(COc2ccc(-c3cn(C(=O)NCC4CCN(c5ccc(F)cn5)C4)cn3)cc2)cc1 (centres unmarked) [AC2020601-0497, N-((1-(5-fluoropyridin-2-yl)pyrrolidin-3-yl)methyl)-4-(4-((4-(methylsulfonyl)benzyl)oxy)phenyl)-1H-imidazole-1-carboxamide]",< 300
18,"CS(=O)(=O)c1ccc(COc2ccc(-c3cn(C(=O)NCCCOc4ccccc4)cn3)cc2)cc1 [AC2020601-0294, 4-(4-((4-(methylsulfonyl)benzyl)oxy)phenyl)-N-(3-phenoxypropyl)-1H-imidazole-1-carboxamide]",< 300
19,"C[C@@H](Oc1ccc(-c2cn(C(=O)NCCCOc3ccccc3)cn2)cc1)c1ccc(S(C)(=O)=O)cc1 (single isomer, unassigned) [AC2020601-0349]",< 300
20,"CNS(=O)(=O)c1ccc(COc2ccc(-c3cn(C(=O)NCCCOc4ccccc4)cn3)cc2)cc1 [AC2020601-0339, 4-(4-((4-(N-methylsulfamoyl)benzyl)oxy)phenyl)-N-(3-phenoxypropyl)-1H-imidazole-1-carboxamide]",< 300
21,"CS(=O)(=O)c1ccc(COc2ccc(-c3cn(C(=O)NCC4CC(=O)N(c5ccccc5)C4)cn3)cc2)cc1 (centres unmarked) [AC2020601-0443, 4-(4-((4-(methylsulfonyl)benzyl)oxy)phenyl)-N-((5-oxo-1-phenylpyrrolidin-3-yl)methyl)-1H-imidazole-1-carboxamide]",< 300

# Continued, values first:
row,IC50 [nM],Compound
1,< 300,"CC(C)n1cncc1COc1ccc(-c2cn(C(=O)NCC3CCN(c4ccccc4)C3)cn2)cc1 (centres unmarked) [AC2020601-0478, 4-(4-((1-isopropyl-1H-imidazol-5-yl)methoxy)phenyl)-N-((1-phenylpyrrolidin-3-yl)methyl)-1H-imidazole-1-carboxamide]"
2,< 300,"CCS(=O)(=O)c1ccc(COc2ccc(-c3cn(C(=O)NCC4CCN(c5ccccc5)C4)cn3)cc2)c(C(N)=O)c1 (centres unmarked) [AC2020601-0431, 4-(4-(2-carbamoyl-4-(ethylsulfonyl)benzyloxy)phenyl)-N-((1-phenylpyrrolidin-3-yl)methyl)-1H-imidazole-1-carboxamide]"
3,< 300,"CS(=N)(=O)c1ccc(COc2ccc(-c3cn(C(=O)NCC4CCN(c5ccccc5)C4)cn3)cc2)cc1 (centres unmarked) [AC2020601-0452, 4-(4-((4-(S-methylsulfonimidoyl)benzyl)oxy)phenyl)-N-((1-phenylpyrrolidin-3-yl)methyl)-1H-imidazole-1-carboxamide]"
4,< 300,"CS(=O)(=O)c1ccc(COc2ccc(-c3cn(C(=O)NC[C@H]4CCN(c5ccccc5)C4)cn3)cc2)cc1 (single isomer, unassigned) [AC2020601-0384b]"
5,< 300,"CS(=O)(=O)c1ncc(COc2ccc(-c3cn(C(=O)NCC4CCN(c5ccccc5)C4)cn3)cc2)cn1 (centres unmarked) [AC2020601-0477, 4-(4-((2-(methylsulfonyl)pyrimidin-5-yl)methoxy)phenyl)-N-((1-phenylpyrrolidin-3-yl)methyl)-1H-imidazole-1-carboxamide]"
6,< 300,"Cn1ncc(COc2ccc(-c3cn(C(=O)NCC4CCN(c5ccccc5)C4)cn3)cc2)n1 (centres unmarked) [AC2020601-0488, 4-(4-((2-methyl-2H-1,2,3-triazol-4-yl)methoxy)phenyl)-N-((1-phenylpyrrolidin-3-yl)methyl)-1H-imidazole-1-carboxamide]"
7,< 300,"Cn1cc(COc2ccc(-c3cn(C(=O)NCC4CCN(c5ccccc5)C4)cn3)cc2)nn1 (centres unmarked) [AC2020601-0489, 4-(4-((1-methyl-1H-1,2,3-triazol-4-yl)methoxy)phenyl)-N-((1-phenylpyrrolidin-3-yl)methyl)-1H-imidazole-1-carboxamide]"
8,< 300,"O=C(Nc1ccc(COc2ccc(-c3cn(C(=O)NCC4CCN(c5ccccc5)C4)cn3)cc2)cc1)C1CC1 (centres unmarked) [AC2020601-0437, 4-(4-((4-(cyclopropanecarboxamido)benzyl)oxy)phenyl)-N-((1-phenylpyrrolidin-3-yl)methyl)-1H-imidazole-1-carboxamide]"
9,< 300,"N#CCS(=O)(=O)c1ccc(COc2ccc(-c3cn(C(=O)NCC4CCN(c5ccccc5)C4)cn3)cc2)cc1 (centres unmarked) [AC2020601-0507, 4-(4-(4-(cyanomethylsulfonyl)benzyloxy)phenyl)-N-((1-phenylpyrrolidin-3-yl)methyl)-1H-imidazole-1-carboxamide]"
10,< 300,"Cc1nnc(COc2ccc(-c3cn(C(=O)NCC4CCN(c5ccccc5)C4)cn3)cc2)o1 (centres unmarked) [AC2020601-0491, 4-(4-((5-methyl-1,3,4-oxadiazol-2-yl)methoxy)phenyl)-N-((1-phenylpyrrolidin-3-yl)methyl)-1H-imidazole-1-carboxamide]"
11,< 300,"CCS(=O)(=O)c1ccc(COc2ccc(-c3cn(C(=O)NCC4CCN(c5ccccc5)C4)cn3)cc2)nn1 (centres unmarked) [AC2020601-0482, 4-(4-((6-(ethylsulfonyl)pyridazin-3-yl)methoxy)phenyl)-N-((1-phenylpyrrolidin-3-yl)methyl)-1H-imidazole-1-carboxamide]"
